The results in this text go back to patent US6372768B1, “2-aminopyridines containing fused ring substituents” (Pfizer INC, priority 1999, dated 2002).

Where a name gives a salt, the structure may show the parent alone.

Broadly, the melting point is the temperature of the solid-liquid transition. The molecule `Nc1cccc(-c2ccc(OCCO)c3c2CCCC3)n1` (as salt: hydrochloride) [Example 2, 6-[4-(2-Hydroxy-ethoxy)-5,6,7,8-tetrahydro-naphthalen-1-yl]-pyridin-2-ylamine] came in with a melting point of 170 to 172 °C. For `CN(C)CCOCCOc1ccc(-c2cccc(N)n2)c2ccccc12` (as salt: hydrochloride) [Example 3, 6-[4-(2-(2-Dimethylaminoethoxy)-ethoxy)-naphthalen-1-yl]-pyridin-2-ylamine] the value was 60 to 75 °C (dec.).
